Measurements published in patent US20060252707A1, “Pharmaceutical composition for the treatment and/or the prevention of atherosclerosis from infectious origin” (UNIVERSITE DE LIEGE, priority 2003, published 2006).
“Also recorded” adds a separate entry of the source.

Columns and labels:
[1] = test system: THP-1 cells conditioned with Chlamydia pneumoniae; assay: Oxidant activity (ethylene production from KMB, gas liquid chromatography) of THP-1 cells conditioned with Chlamydia pneumoniae, then stimulated by PMA; type: cell-based, human; settings: for Ethylene: % of THP-1 + Chlamydia
Experimental: This model has been described in details in Mouithys Mickalad et al. (Biochem Biophys Res Comm 2001, 287: 781-788). Treatment of the Cells with Chlamydia pneumoniae:
The monocytes (in multiwell plates, 2×10^6 cells/well) are conditioned by a pre-incubation of 19 hours with elementary bodies of Chlamydia pneumoniae (at a dose equivalent to a mean endotoxin concentration of 3.3 pg). The elementary bodies are obtained by Chlamydia culture in MacCoy cells (American Type Culture Collection, Rockville, USA).
After incubation with C. pneumoniae, the cells are washed and detached from the wells; they are put in sterile vials and an oxidable substrate, α-keto-methyl butyric acid (KMB) at 10^−3 M, is added. The vial is sealed and the following reagents are added by needle puncture. through the septum: 200 U horseradish peroxidase (HRP) and 10^−7 M phorbol myristate acetate (PMA).
PMA is a monocyte activator, enhancing the superoxide anion production by these cells. Superoxide anion dismutates into hydrogen peroxide (H2O2), which is used by HRP to form more oxidant species, able to oxidize KMB, releasing ethylene. After 3 hours of incubation at 37° C, ethylene, which has accumulated in the gaseous phase of the sealed vial is measured by gas liquid chromatography, on a Porapak T column (TM) equipped with flame ionisation detector. These assays can be made with the prior addition of a reagent able to inhibit or to stimulate the monocytes, the reagent being added, either at pre-incubation (at the same time as the Chlamydia EB), or at the moment of PMA activation.

[2] = Dunnick et al.; cited from earlier work
[3] = test system: superoxide anion; assay: EPR spin-trapping of superoxide anion produced by Chlamydia-conditioned, PMA stimulated THP-1 cells; type: cell-based, human; settings: 10 μM DPI; FIG. 5 lines I-5 and II-4; PMA 5×10^−7 M
Excerpt: Monocytes are conditioned by Chlamydia. The formation of this species was monitored by electron paramagnetic resonance, using spin-trapping agents.

[4] = test system: nuclear transcription factor kappaB (NF-κB); assay: Activation of NF-κB (binding to DNA) by electrophoretic mobility shift assay in THP-1 cells pre-incubated with Chlamydia; type: cell-based, human; settings: THP-1 + Chlamydia, % of THP-1 without preincubation with C pneumoniae (FIG. 7)
Experimental: FIG. 7 represents the effects of pre-incubation with Chlamydia on the activity of the nuclear transcription factor kappaB (NF-kB) (column 2). NF-kB is expressed in % of column 1 (THP-1 cells without preincubation with C pneumoniae)
The activation of NF-κB was measured by the technique of <<electrophoretic mobility shift assay>> (EMSA) (Schoonbroodt et al., 2000, J Immunol. 164: 4292-4300; Nys et al., 2003, Nitric Oxide 9: 33-43) (FIG. 7). The activation of NF-κB is expressed in % of control cells (cells which have not been pre-incubated with Chlamydia) (column 1). The incubation of monocytes with C. pneumoniae activates the NF-κB binding to DNA (FIG. 7, column 2).

[5] = test system: THP-1 cells; assay: Microscopy of monocyte transformation into macrophages under Chlamydia pneumoniae; type: cell-based, human
Experimental: Incubation of THP-1 cells with C. pneumoniae induces the differentiation of monocytes (round floating cells, […] diameter; FIG. 1, 1) into macrophages, amiboid cells, which are larger than monocytes (30-50 μm diameter) and adhere to the support (FIGS. 1,2). Monocytes are stained with Giemsa and May-Grunwald stains (Merck, Germany) (Chemical methods of medical investigation, 1964, 10th edition by E. Merck AG. Darmstadt, Germany) and macrophages are observed by phase contrast microscopy.

[6] = test system: THP-1 cell line; assay: Model of foam cell formation from THP-1 monocytes (Chlamydia pneumoniae, then LDL or liposomes, Oil Red O); type: cell-based, human; settings: 10^−5 M; LDL
Experimental: A model of foam cell formation from monocytes (THP-1 cell line) was developed. The cells are incubated for 19 hours with Chlamydia pneumoniae. This incubation is followed by the addition of human LDL or liposomes, and another incubation period of 48 hours. At the end of this second period of incubation, the cells are fixed and stained with oil Red O (Sigma, Belgium) (Smirnova et al., 2004, Am J Physiol Heart Circ Physiol. March 11 (Epub ahead of print) to highlight the foam cells. When drugs are used in this model, they are added at the same time as the LDL or liposomes. LDL are prepared from human blood drawn on EDTA. They are isolated by sequential flotation centrifugation with increased concentrations of KBr. After their isolation, LDL are dialysed, sterilised by filtration and their purity is confirmed by electrophoresis. Liposomes are lipid vesicles prepared by extrusion with cholesterol esters and phospholipids, mimicking lipoproteins.

[7] = drug added at cell conditioning with Chlamydia (pre-incubation 19 hours), then PMA 10^−7 M
[8] = not pre-incubated, added directly before the stimulation by PMA

With `COc1cc(C(C)=O)ccc1O` [apocyanine, apocynine] as the compound, how does the “effect on oxidant activity / oxidation rate” value [1, 7] read?
The value was “little or no effect”.

What does the source list for tocopherol?
Ethylene ([1]; FIG. 11 column 4, 10^−4 M pre-incubated): 147.0%; Ethylene ([1]; FIG. 11 column 5, 10^−6 M pre-incubated (so in the source)): 133.0%; Ethylene ([1]; FIG. 11 column 6, 10^−6 M pre-incubated): 87.0%; Ethylene ([1]; FIG. 11 column 7, 10^−4 M not pre-incubated (added just before PMA)): 2.4%; Ethylene ([1]; FIG. 11 column 8, 10^−5 M not pre-incubated (added just before PMA)): 2.5%; Ethylene ([1]; FIG. 11 column 9, 10^−6 M not pre-incubated (added just before PMA)): 77.0%; effect on oxidant activity / oxidation rate [1, 7]: favouring the oxidation rate; effect on oxidant activity / oxidation rate ([1]; drug added at cell conditioning with Chlamydia (pre-incubation 19 hours), then PMA 10^−7 M, listed as vitamin E (tocopherol)): little or no effect; effect on ethylene production [1, 8]: quite completely inhibit the ethylene production

With `CC(=O)c1ccc2c(c1)N(CCCN(C)C)c1ccccc1S2` [acepromazine] as the compound, how does the “effect on oxidant activity / oxidation rate” value [1, 7] read?
The value was “little or no effect”.

With `Oc1ccc(/C=C/c2ccccc2)cc1` [trans-4-stilbene, trans-4-hydrostilbene] as the compound, how does the Ethylene ([1]; FIG. 22, drug alone 10^−4 M, pre-incubation with Chlamydia) read?
The Ethylene was 1.8%.

And the Ethylene ([1]; FIG. 22, drug alone 10^−5 M, pre-incubation with Chlamydia)?
The Ethylene was 14.0%.

What does the source list for `C[C@]12CC[C@@H]3c4ccc(O)cc4CC[C@H]3[C@@H]1CC[C@@H]2O` [estradiol]?
Ethylene ([1]; FIG. 10, 10^−4 M not pre-incubated (added just before PMA)): 2.6%; Ethylene ([1]; FIG. 10, 10^−4 M pre-incubated with Chlamydia): 140.0%; Ethylene ([1]; FIG. 10, 10^−5 M not pre-incubated (added just before PMA)): 2.9%; Ethylene ([1]; FIG. 10, 10^−5 M pre-incubated with Chlamydia): 133.0%; Ethylene ([1]; FIG. 10, 10^−6 M not pre-incubated (added just before PMA)): 7.8%; Ethylene ([1]; FIG. 10, 10^−6 M pre-incubated with Chlamydia): 85.0%

With `Oc1cc(O)cc(C=Cc2ccc(O)c(O)c2)c1` [piceatanol, 3,4,3′,5′tetrahydrostilbene] as the compound, how does the Ethylene ([1]; FIG. 20, drug alone 10^−4 M, pre-incubation with Chlamydia) read?
Its Ethylene is 0.4%.

What about the Ethylene ([1]; FIG. 20, drug alone 10^−5 M, pre-incubation with Chlamydia) of the same compound?
Its Ethylene is 57.0%.

Which “concentrations at which toxicity does not exist” value [2] does the source give for `O=c1c(O)c(-c2ccc(O)c(O)c2)oc2cc(O)cc(O)c12` [Quercetin, quercetin] here?
The value was ≤ 10^−4 M.

And the “effect on oxidant activity / oxidation rate” value ([1]; 10^−4 M, pre-incubated with Chlamydia)?
Its value is “active; also recorded: inhibitor”.

And the Ethylene ([1]; FIG. 12, 10^−4 M incubated together with Chlamydia)?
Its Ethylene is 2.0%.

And the Ethylene ([1]; FIG. 12, 10^−4 M not incubated (added just before PMA))?
The Ethylene was 3.7%.

And the Ethylene ([1]; FIG. 12, 10^−5 M incubated together with Chlamydia)?
Its Ethylene is 100.0%.

What about the Ethylene ([1]; FIG. 12, 10^−5 M not incubated (added just before PMA)) of the same compound?
The Ethylene was 1.2%.

And the Ethylene ([1]; FIG. 12, 10^−6 M incubated together with Chlamydia)?
Its Ethylene is 131.0%.

What about the Ethylene ([1]; FIG. 12, 10^−6 M not incubated (added just before PMA)) of the same compound?
The Ethylene was 6.6%.

What about the “effect on ethylene production” value [1, 8] of the same compound?
The value was “quite completely inhibit the ethylene production”.

For `c1ccc([I+]c2ccccc2)cc1` [DPI, diphenyl iodonium], which “effect on EPR signal of superoxide anion” value [3] is on record?
The value was “suppresses”.

And the “effect on ethylene production” value ([1]; DPI 5 μM, FIG. 3 column 7, PMA 10^−7 M)?
Its value is “inhibits almost totally”.

For `C[C@H]1C[C@@H]2[C@H]([C@@H](O)C[C@@]3(C)[C@H]2CC[C@]3(O)C(=O)CO)[C@@]2(C)C=CC(=O)C=C12` [MPL, methylprednisolone], which “NF-κB relative value (%)” value ([4]; 10^−5 M) is on record?
The value was 417%.

What about the “NF-κB relative value (%)” value ([4]; 10^−6 M) of the same compound?
Its value is 450%.

Which “inhibition of the monocyte transformation into macrophages” value ([5]; at 10^−4 M) does the source give for `Oc1ccc(/C=C/c2cc(O)cc(O)c2)cc1` [Resveratrol, trans-reveratrol] here?
Its value is “nearly complete”.

What about the “inhibition of the monocyte transformation into macrophages” value ([5]; at 10^−5 M) of the same compound?
Its value is “partial”.

And the “effect on transformation into foam cells” value [6]?
The value was “completely inhibits”.

And the Ethylene ([1]; FIG. 19, drug alone 10^−4 M, pre-incubation with Chlamydia)?
The Ethylene was 18.3%.

And the Ethylene ([1]; FIG. 19, drug alone 10^−5 M, pre-incubation with Chlamydia)?
Its Ethylene is 35.8%.

And the “effect on oxidant activity / oxidation rate” value [1, 7]?
The value was “reduces the oxidizing activity of THP-1 cells”.

What about the “effect on ethylene production” value [1, 8] of the same compound?
The value was “inhibiting capacity is still more marked”.

With `CC/C(=C(/CC)c1ccc(O)cc1)c1ccc(O)cc1` [bertrol, trans-α-α-diethyl-p,p′-stilbenediol] as the compound, how does the Ethylene ([1]; FIG. 21, drug alone 10^−4 M, pre-incubation with Chlamydia) read?
Its Ethylene is 1.6%.

And the Ethylene ([1]; FIG. 21, drug alone 10^−5 M, pre-incubation with Chlamydia)?
The Ethylene was 32.0%.
